According to patent publication US20260184712A1, “Heterocyclic Compounds as ENT Inhibitors and Compounds for Use in the Treatment of Cancers” (iTeos Belgium SA, priority 2022, published 2026):

The compounds below were run on stimulated primary human T cells (assay: T cell proliferation assay, Condition B (X-VIVO15, 2% HSA and 0.1% AAG)). Conditions: Homo sapiens, T-cell, 96 h; Condition B: X-VIVO15 medium containing HSA and α1-Acid Glycoprotein; anti-CD3/anti-CD28 beads, ATP, 4 days; CFSE-lo T cells.
Type: cell-based
Procedure: (§1) The goal of this study was to determine the potency of ENT1 inhibitors by measuring the rescued proliferation of stimulated primary human T cells incubated in the presence of 100 uM Adenosine triphosphate (ATP), in baseline conditions (condition A) or in the presence of various proteins known to bind small molecules (condition B).
Condition B: X-VIVO15, 2% Human Serum Albumin (HSA) and 0.1% α-1-Acid Glycoprotein (AAG)
(§2) Venous blood from healthy volunteers, all of whom signed an informed consent approved by the Ethics Committee (FOR—UIC—BV-050-01-01 ICF_HBS_HD Version 5.0), was obtained by ImmuneHealth (Centre Hospitalier Universitaire Tivoli, La Louviere, Belgium). Mononuclear cells were collected by density gradient centrifugation, using SepMate-50 tubes (StemCell Technologies, Grenoble, France) and Lymphoprep (Stemcell Technologies) according to the manufacturer's instructions. CD3+ T cells were isolated by immunomagnetic negative selection, using the EasySep Human T Cell Isolation Kit (StemCell Technologies) as per the manufacturer's instructions. CD3+ T cells were stored in heat inactivated FBS (hiFBS; Gibco, ThermoFisher Scientific, Merelbeke, Belgium) and 10% DMSO in liquid nitrogen.
(§3) Purified human CD3+ T cells were thawed and washed once with RPMI1640 medium, UltraGlutamine (Lonza, Verviers, Belgium) containing 10% hiFBS. Cells were resuspended in PBS containing 10% hiFBS at 1×10^7 cells/ml. One volume of cells was combined with a matching volume of 2 μM CFSE solution in PBS, mixed well by pipetting, and incubated at room temperature for 5 minutes under rotation and protected from light. Excess CFSE was quenched by addition of PBS containing 10% hiFBS, and the cells were centrifuged (300×rcf, 7 minutes) and resuspended in X-VIVO15. Cells were again centrifuged and resuspended in X-VIVO15 for counting.
(§4) Cells were resuspended at 1.6×10^6 cells/mL in X-VIVO15 medium (Condition A) or X-VIVO15 medium containing 4% (v/v) HSA (Sigma-Aldrich, Diegem, Belgium) and 0.2% (v/v) ai-Acid Glycoprotein (Sigma-Aldrich, Diegem, Belgium) (Condition B).
(§5) […] of cell suspension (2×10^4 cells) was added to wells of sterile flat-bottom 384-well plates. Cells were activated by adding […] of anti-CD3 anti-CD28 coated microbeads (Dynabeads human T-activator CD3/CD28; Life Technologies, Paisley, UK) suspended in X-VIVO15 medium or X-VIVO15 medium containing 4% (v/v) HSA and 0.2% (v/v) ai-Acid Glycoprotein at a ratio of one microbead per two cells. Serial dilutions of the ENT1 inhibitors were conducted in X-VIVO15 medium and […] of the diluent was added to the wells. Cells were mixed by pipetting up and down and pre-incubated for 30 minutes in a 37° C. humidified tissue culture incubator with 5% CO2. After pre-incubation, cells were cultured in the presence or absence of ATP (Sigma-Aldrich) at a final concentration of […]. The final well volume was 50 μl in all cases. Experiments were performed in biological duplicates. Cells were mixed by pipetting up and down and incubated for 4 days in a 37° C. humidified tissue culture incubator with 5% CO2.
(§6) Samples were run on a BD LSR Fortessa FACS machine (BD FACSDiva Software v9.0.1). Data were analyzed using FlowJo (BD, v10.7.1). T cell proliferation was determined by measuring the frequency of ‘CFSE^lo’ (i.e. CFSE-diluted).
(§7) T cell proliferation data were analyzed using FlowJo software (Version 10.6.2). Dead cells and cellular debris were excluded on the basis of forward and side scatter profile and singlet cells were selected for further analysis.
(§8) T cell proliferation was determined based on the percent CFSE^lo total T cells for each condition. The data were plotted on the y-axis against log molar (M) concentration of ENT1 inhibitors on the x-axis in GraphPad Prism (version 9.0.0). IC50 and IC90 values were generated with the ‘log(agonist) vs. response—Find ECanything(F))’ function with F constrained to 50 or 90, respectively. pICF values were generated by taking the −logECF values.

Structure (SMILES)	IC50
C[C@H]1O[C@@H](n2cnc3c(OCc4ccc(OC(F)F)cc4)nc(N)nc32)[C@H](O)[C@@H]1O [Compound 190]	> 500 nM
C[C@H]1O[C@@H](n2cnc3c(OCc4ccc(C(F)F)cc4)ncnc32)[C@H](O)[C@@H]1O [Compound 182]	> 500 nM
C[C@H]1O[C@@H](n2c(NC3CCS(=O)(=O)CC3)nc3c(OCc4ccc([N+](=O)[O-])cc4)ncnc32)[C@H](O)[C@@H]1O [Compound 31]	1 to 20 nM
C[C@H]1O[C@@H](n2c(NCCCO)nc3c(OCc4ccc(OC(F)F)cc4)ncnc32)[C@H](O)[C@@H]1O [Compound 44]	20 to 500 nM
C[C@H]1O[C@@H](n2c(NC3CC(F)(F)C3)nc3c(OCc4ccc(C#N)cc4)ncnc32)[C@H](O)[C@@H]1O [Compound 49]	20 to 500 nM
C[C@H]1O[C@@H](n2c(NCCCO)nc3c(OCc4ccc([N+](=O)[O-])cc4)ncnc32)[C@H](O)[C@@H]1O [Compound 22]	20 to 500 nM
C[C@H]1O[C@@H](n2cnc3c(NCc4ccc([N+](=O)[O-])cc4)ncnc32)[C@H](O)[C@@H]1O [Compound 185]	> 500 nM
C[C@H]1O[C@@H](n2c(NC3CC(F)(F)C3)nc3c(OCc4ccc([N+](=O)[O-])cc4)ncnc32)[C@H](O)[C@@H]1O [Compound 47]	20 to 500 nM
C[C@H]1O[C@@H](n2cnc3c(OCc4ccc(OC(F)F)cc4)nc(Cl)nc32)[C@H](O)[C@@H]1O [Compound 161]	20 to 500 nM
C[C@H]1O[C@@H](n2c(NCC(F)(F)F)nc3c(OCc4ccc([N+](=O)[O-])cc4)ncnc32)[C@H](O)[C@@H]1O [Compound 24]	20 to 500 nM
CC(=O)N1CCC(Nc2nc3c(OCc4ccc(OC(F)F)cc4)ncnc3n2[C@@H]2O[C@H](C)[C@@H](O)[C@H]2O)CC1 [Compound 79]	1 to 20 nM
C[C@H]1O[C@@H](n2cnc3c(/C=C/c4ccc([N+](=O)[O-])cc4)ncnc32)[C@H](O)[C@@H]1O [Compound 157]	20 to 500 nM
C[C@H]1O[C@@H](n2c(NC3CCCC3)nc3c(OCc4ccc(C#N)c(F)c4)ncnc32)[C@H](O)[C@@H]1O [Compound 89]	20 to 500 nM
C[C@H]1O[C@@H](n2c(NC3CCS(=O)(=O)CC3)nc3c(OCc4ccc(C#N)cc4)ncnc32)[C@H](O)[C@@H]1O [Compound 54]	20 to 500 nM
C[C@H]1O[C@@H](n2cnc3c(OCc4ccc(OC(F)(F)F)cc4)ncnc32)[C@H](O)[C@@H]1O [Compound 180]	> 500 nM

What follows are compounds tested against T1, human ENT1 (Homo sapiens, UniProt Q99808) (assay: ENT1 binding assay (competition with Sahenta-DY647 on JAR cells)). Conditions: competition with SAHENTA-DY647 binding; IC50 categorized; read-out: Binding Assay IC50.
T1 construct: JAR cells expressing ENT1 were purchased from ATCC; host or cells: JAR cells
T1 sequence (Q99808 1-456): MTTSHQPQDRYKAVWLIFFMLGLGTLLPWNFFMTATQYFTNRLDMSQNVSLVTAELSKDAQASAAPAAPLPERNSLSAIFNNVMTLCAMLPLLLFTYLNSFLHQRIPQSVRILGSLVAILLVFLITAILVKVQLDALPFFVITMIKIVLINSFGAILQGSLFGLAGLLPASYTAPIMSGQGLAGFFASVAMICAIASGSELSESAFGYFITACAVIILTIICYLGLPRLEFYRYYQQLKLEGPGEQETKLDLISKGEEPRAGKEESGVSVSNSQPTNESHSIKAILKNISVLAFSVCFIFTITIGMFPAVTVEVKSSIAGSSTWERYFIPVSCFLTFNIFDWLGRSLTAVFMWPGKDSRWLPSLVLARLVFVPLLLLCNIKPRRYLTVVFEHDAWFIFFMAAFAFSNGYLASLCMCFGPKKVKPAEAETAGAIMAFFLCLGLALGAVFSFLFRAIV
Procedure, shortened: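 Whole-cell competition on JAR cells (native ENT1): 50,000 cells pre-incubated 30 min at 4 °C with compound in HBSS/10 mM Hepes/0.1% BSA, then 100 nM Sahenta-DY647 added for 30 min at 4 °C. After washing, fluorescence (Ex 630/Em 670 nm) read; IC50 from sigmoidal fit, averaged as pIC50.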

Structure (SMILES)	IC50
C[C@H]1O[C@@H](n2c(NC3CCS(=O)(=O)CC3)nc3c(OCc4ccc([N+](=O)[O-])cc4)ncnc32)[C@H](O)[C@@H]1O [Compound 31]	< 1 nM
C[C@H]1O[C@@H](n2c(NC3CC(F)(F)C3)nc3c(OCc4ccc(C#N)cc4)ncnc32)[C@H](O)[C@@H]1O [Compound 49]	1 to 20 nM
C[C@H]1O[C@@H](n2c(NCCCO)nc3c(OCc4ccc([N+](=O)[O-])cc4)ncnc32)[C@H](O)[C@@H]1O [Compound 22]	1 to 20 nM
C[C@H]1O[C@@H](n2cnc3c(NCc4ccc([N+](=O)[O-])cc4)ncnc32)[C@H](O)[C@@H]1O [Compound 185]	20 to 500 nM
C[C@H]1O[C@@H](n2c(NC3CC(F)(F)C3)nc3c(OCc4ccc([N+](=O)[O-])cc4)ncnc32)[C@H](O)[C@@H]1O [Compound 47]	1 to 20 nM
C[C@H]1O[C@@H](n2c(NCC(F)(F)F)nc3c(OCc4ccc([N+](=O)[O-])cc4)ncnc32)[C@H](O)[C@@H]1O [Compound 24]	1 to 20 nM
CC(=O)N1CCC(Nc2nc3c(OCc4ccc(OC(F)F)cc4)ncnc3n2[C@@H]2O[C@H](C)[C@@H](O)[C@H]2O)CC1 [Compound 79]	< 1 nM
C[C@H]1O[C@@H](n2cnc3c(/C=C/c4ccc([N+](=O)[O-])cc4)ncnc32)[C@H](O)[C@@H]1O [Compound 157]	1 to 20 nM
C[C@H]1O[C@@H](n2c(NC3CCCC3)nc3c(OCc4ccc(C#N)c(F)c4)ncnc32)[C@H](O)[C@@H]1O [Compound 89]	< 1 nM
C[C@H]1O[C@@H](n2c(NC3CCS(=O)(=O)CC3)nc3c(OCc4ccc(C#N)cc4)ncnc32)[C@H](O)[C@@H]1O [Compound 54]	< 1 nM

More lines, now with the values ahead:

IC50	Structure (SMILES)
20 to 500 nM	C[C@H]1O[C@@H](n2cnc3c(OCc4ccc(OC(F)F)cc4)nc(N)nc32)[C@H](O)[C@@H]1O [Compound 190]
20 to 500 nM	C[C@H]1O[C@@H](n2cnc3c(OCc4ccc(C(F)F)cc4)ncnc32)[C@H](O)[C@@H]1O [Compound 182]
1 to 20 nM	C[C@H]1O[C@@H](n2c(NCCCO)nc3c(OCc4ccc(OC(F)F)cc4)ncnc32)[C@H](O)[C@@H]1O [Compound 44]
1 to 20 nM	C[C@H]1O[C@@H](n2cnc3c(OCc4ccc(OC(F)F)cc4)nc(Cl)nc32)[C@H](O)[C@@H]1O [Compound 161]
20 to 500 nM	C[C@H]1O[C@@H](n2cnc3c(OCc4ccc(OC(F)(F)F)cc4)ncnc32)[C@H](O)[C@@H]1O [Compound 180]

These compounds were tested on stimulated primary human T cells (assay: T cell proliferation assay, Condition A (X-VIVO15)). Conditions: Homo sapiens, T-cell, 96 h; Condition A: X-VIVO15 medium; anti-CD3/anti-CD28 beads, ATP, 4 days; CFSE-lo T cells.
Type: cell-based
Procedure: as §1, §2, §3, §4, §5, §6, §7, §8

Structure (SMILES)	IC50
C[C@H]1O[C@@H](n2cnc3c(OCc4ccc(OC(F)F)cc4)nc(N)nc32)[C@H](O)[C@@H]1O [Compound 190]	1 to 20 nM
C[C@H]1O[C@@H](n2cnc3c(OCc4ccc(C(F)F)cc4)ncnc32)[C@H](O)[C@@H]1O [Compound 182]	1 to 20 nM
C[C@H]1O[C@@H](n2c(NC3CCS(=O)(=O)CC3)nc3c(OCc4ccc([N+](=O)[O-])cc4)ncnc32)[C@H](O)[C@@H]1O [Compound 31]	< 1 nM
C[C@H]1O[C@@H](n2c(NCCCO)nc3c(OCc4ccc(OC(F)F)cc4)ncnc32)[C@H](O)[C@@H]1O [Compound 44]	1 to 20 nM
C[C@H]1O[C@@H](n2c(NC3CC(F)(F)C3)nc3c(OCc4ccc(C#N)cc4)ncnc32)[C@H](O)[C@@H]1O [Compound 49]	> 500 nM
C[C@H]1O[C@@H](n2c(NCCCO)nc3c(OCc4ccc([N+](=O)[O-])cc4)ncnc32)[C@H](O)[C@@H]1O [Compound 22]	1 to 20 nM
C[C@H]1O[C@@H](n2cnc3c(NCc4ccc([N+](=O)[O-])cc4)ncnc32)[C@H](O)[C@@H]1O [Compound 185]	20 to 500 nM
C[C@H]1O[C@@H](n2c(NC3CC(F)(F)C3)nc3c(OCc4ccc([N+](=O)[O-])cc4)ncnc32)[C@H](O)[C@@H]1O [Compound 47]	< 1 nM
C[C@H]1O[C@@H](n2cnc3c(OCc4ccc(OC(F)F)cc4)nc(Cl)nc32)[C@H](O)[C@@H]1O [Compound 161]	1 to 20 nM
C[C@H]1O[C@@H](n2c(NCC(F)(F)F)nc3c(OCc4ccc([N+](=O)[O-])cc4)ncnc32)[C@H](O)[C@@H]1O [Compound 24]	1 to 20 nM
CC(=O)N1CCC(Nc2nc3c(OCc4ccc(OC(F)F)cc4)ncnc3n2[C@@H]2O[C@H](C)[C@@H](O)[C@H]2O)CC1 [Compound 79]	< 1 nM
C[C@H]1O[C@@H](n2cnc3c(/C=C/c4ccc([N+](=O)[O-])cc4)ncnc32)[C@H](O)[C@@H]1O [Compound 157]	< 1 nM
C[C@H]1O[C@@H](n2c(NC3CCCC3)nc3c(OCc4ccc(C#N)c(F)c4)ncnc32)[C@H](O)[C@@H]1O [Compound 89]	< 1 nM
C[C@H]1O[C@@H](n2c(NC3CCS(=O)(=O)CC3)nc3c(OCc4ccc(C#N)cc4)ncnc32)[C@H](O)[C@@H]1O [Compound 54]	< 1 nM
C[C@H]1O[C@@H](n2cnc3c(OCc4ccc(OC(F)(F)F)cc4)ncnc32)[C@H](O)[C@@H]1O [Compound 180]	1 to 20 nM
